Values quoted from earlier work, collected in patent US20090291465A1, “Screening Method for Identifying New Drugs” (FUNDACIÓ PRIVADA PARC CIENTÍFIC DE BARCELONA, priority 2006, published 2009).

Key:
[1] = limits its use to topical applications
[2] = test system: isoleucyl-tRNA synthetases (IIeRS)

In the case of `C/C(=C\C(=O)OCCCCCCCCC(=O)O)C[C@@H]1OC[C@H](C[C@@H]2O[C@H]2[C@@H](C)[C@H](C)O)[C@@H](O)[C@H]1O` [Pseudomonic acid], the systemic bioavailability [1] is given as “lack of systemic bioavailability” and the “selectivity for pathogen vs. mammalian IIeRS” value [2] is given as about 8000 fold.
